The values that follow come from article PMC5315633 (ACS chemical biology, 2016).

For test [1], the target named is T1, Psf3 (Pseudomonas syringae, UniProt I6R485).
T1 sequence (I6R485 1-295): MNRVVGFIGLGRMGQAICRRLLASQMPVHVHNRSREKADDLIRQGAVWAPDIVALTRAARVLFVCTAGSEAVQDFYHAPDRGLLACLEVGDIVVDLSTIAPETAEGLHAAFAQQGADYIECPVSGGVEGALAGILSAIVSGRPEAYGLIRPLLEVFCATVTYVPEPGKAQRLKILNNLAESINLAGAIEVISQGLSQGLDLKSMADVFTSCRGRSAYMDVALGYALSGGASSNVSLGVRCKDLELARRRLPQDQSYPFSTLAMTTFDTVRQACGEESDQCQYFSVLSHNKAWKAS
The experiment in a line: […] NMR of reverse. To be noted: 2 mM NADP+, 1 mM (S)-2-HPP, pH 7.5, room temperature. In kind it is biochemical.

Test [2] has as its target T1, Psf3. The experiment in a line: NADPH consumption at […] nm, Michaelis-Menten fit. To be noted: 250 uM NADPH (saturating), 50 mM HEPES pH 7.5. The class given is biochemical.

Turning to `C[C@H](O)CP(=O)(O)O` [(S)-2-HPP], the “31P NMR of reverse (oxidation) reaction” value on Psf3 [1] is reported as “reaction with (S)-2-HPP resulted in a new peak that is consistent with 2-OPP”.

Take `CC(=O)CP(=O)(O)O` [2-OPP]: the KM entry on Psf3 [2] was “Kinetic parameters, with respect to 2-OPP and determined by monitoring the consumption of NADPH”.
